We go through 33 compounds from patent publication US12649751B2 (Arcus Biosciences, Inc., priority 2022, dated 2026).

One test has as its target HPK1 (Homo sapiens, UniProt Q92918). Nature of the test: HPK1 Biochemical Assay (ADP-Glo luminescence; low ATP 10 μM or high ATP 200 μM). On the technique in general: ADP-Glo turns the ADP formed in a reaction into a luminescent signal.
Test [1] has as its system p-SLP-76 (Ser376) in Jurkat cells. Nature of the test: pSLP76 Cellular Assay (AlphaLISA SureFire Ultra p-SLP-76 (Ser376), anti-CD3 activated Jurkat cells). The settings on record: Homo sapiens, read-out: Cellular Potency. The class given is cell-based. Summed up:
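Read-out is AlphaLISA p-SLP-76 (Ser376) signal at 570 nm in Jurkat lysates, with IC50 fitted by 4-parameter logistic. Cells were starved overnight, exposed 1 h at 37 °C to 22 twofold compound dilutions in HBSS, then activated 45 min with anti-CD3 (0.025 mg/ml stock added).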
(Bead proximity is the source of the signal in Alpha formats.)

Setting [2] is: 2 nM HPK1, 10 μM ATP, read-out: Biochemical Potency (low ATP).
The mark [3] stands for this setting: Jurkat cells, anti-CD3 stimulation, pSLP76.
Where [4] appears, read: HPK1 ADP-Glo assay, high ATP (200 μM ATP, 5 nM HPK1), read-out: Biochemical Potency (high ATP).
Setting [5] is: pSLP76 (Ser376) AlphaLISA, anti-CD3 activated Jurkat cells.
Setting [6] is: HPK1 ADP-Glo assay, low ATP (10 μM ATP, 2 nM HPK1), read-out: Biochemical Potency (low ATP).

Read-outs that look alike come from different tables or passages of the source. A value given as a limit tells only on which side of the number the result lay.

Sequence of HPK1 (Q92918 whole entry, species assumed): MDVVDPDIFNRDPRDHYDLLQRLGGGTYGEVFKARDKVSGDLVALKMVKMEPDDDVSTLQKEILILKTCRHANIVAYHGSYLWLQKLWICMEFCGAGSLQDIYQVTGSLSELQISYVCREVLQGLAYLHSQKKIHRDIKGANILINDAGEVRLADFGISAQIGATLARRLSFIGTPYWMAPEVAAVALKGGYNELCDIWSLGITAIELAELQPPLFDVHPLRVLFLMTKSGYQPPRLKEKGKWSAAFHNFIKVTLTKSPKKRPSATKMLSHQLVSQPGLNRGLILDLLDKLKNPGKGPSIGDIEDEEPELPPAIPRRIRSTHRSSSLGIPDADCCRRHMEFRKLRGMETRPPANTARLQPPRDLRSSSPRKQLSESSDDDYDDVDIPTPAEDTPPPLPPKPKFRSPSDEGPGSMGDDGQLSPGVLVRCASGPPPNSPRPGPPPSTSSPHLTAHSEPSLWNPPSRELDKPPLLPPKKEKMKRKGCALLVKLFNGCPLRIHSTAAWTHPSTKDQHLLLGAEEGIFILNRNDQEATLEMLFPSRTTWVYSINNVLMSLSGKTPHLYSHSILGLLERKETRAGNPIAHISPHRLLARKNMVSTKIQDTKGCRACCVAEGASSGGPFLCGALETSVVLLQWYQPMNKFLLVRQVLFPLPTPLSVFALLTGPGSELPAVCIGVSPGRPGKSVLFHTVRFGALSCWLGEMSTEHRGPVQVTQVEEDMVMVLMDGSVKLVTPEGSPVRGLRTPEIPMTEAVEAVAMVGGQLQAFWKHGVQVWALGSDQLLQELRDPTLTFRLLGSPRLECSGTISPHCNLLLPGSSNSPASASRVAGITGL

In the case of `Cc1cccnc1-c1nc2cc(Nc3cncc(N4C[C@@H]5C[C@H]4CN5C)n3)ncc2s1` [Example 145, 6-[(1S,4S)-5-Methyl-2,5-diazabicyclo[2.2.1]heptan-2-yl]-N-[2-(3-methylpyridin-2-yl)-[1,3]thiazolo[5,4-c]pyridin-6-yl]pyrazin-2-amine], the IC50 at HPK1 (setting [2]) was less than 100 nM; in test [1] (setting [3]), 100 to 1000 nM.
For `CC[C@@H]1COCCN1c1cc(-c2nc3cc(Nc4cc(C)nc(N5C[C@@H]6C[C@H]5CN6CC)n4)ncc3s2)ccn1` [Example 475], the IC50 (at HPK1 (setting [4]); in test [1] (setting [5])) was less than 100 nM throughout.
On to `Cc1cc(Nc2cc3nc(-c4ccnc(N5CCOC[C@H]5C)c4)sc3cn2)nc(N2C[C@@H]3C[C@H]2CN3C)n1` [Example 455], for which the figures for the IC50 (on HPK1 (setting [4]); in test [1] (setting [5])) were less than 100 nM and 100 to 1000 nM, respectively.
Regarding `Cc1cc(Nc2cc3nc(-c4ccnc(N5CCOC[C@H]5C)c4)sc3cn2)nc(N2C[C@@H]3C[C@H]2CN3CCO)n1` [Example 450], the IC50 (on HPK1 (setting [4]); in test [1] (setting [5])) was less than 100 nM each time.
Regarding `Cc1cccnc1-c1nc2cc(Nc3ccc([C@H]4CCOC4)c(CN4CCCC4)n3)ncc2s1` (single isomer, unassigned) [Example 258, N-[2-(3-Methylpyridin-2-yl)-[1,3]thiazolo[5,4-c]pyridin-6-yl]-5-[(3R or 3S)-oxolan-3-yl]-6-[(pyrrolidin-1-yl)methyl]pyridin-2-amine], the IC50 was less than 100 nM at HPK1 (setting [2]) and 100 to 1000 nM in test [1] (setting [3]).
As to `Cc1cc(Nc2cc3nc(-c4cccc(C(=O)N(C)[C@@H](C)CO)c4)sc3cn2)nc(N2C[C@@H]3C[C@H]2CN3C)n1` [Example 561], the IC50 is less than 100 nM on HPK1 (setting [4]) and 100 to 1000 nM in test [1] (setting [5]).
The corresponding values for `Cc1cc(Nc2cc3nc(-c4cccc(C5(C(=O)N(C)C)CC5)c4)sc3cn2)nc(N2C[C@@H]3C[C@H]2CN3C)n1` [Example 393] are less than 100 nM and 100 to 1000 nM.
In the case of `C[C@H]1COCCN1c1nc2cc(Nc3ccc(C4CCOCC4)c(CN4CCCC4)n3)ncc2s1` [Example 235, N-{2-[(3S)-3-Methylmorpholin-4-yl]-[1,3]thiazolo[5,4-c]pyridin-6-yl}-5-(oxan-4-yl)-6-[(pyrrolidin-1-yl)methyl]pyridin-2-amine], the IC50 was less than 100 nM at HPK1 (setting [2]) and 1000 to 5000 nM in test [1] (setting [3]).
`CC(C)(O)c1cccc(-c2nc3cc(Nc4cnc(C5CCOCC5)c(N5C[C@@H]6C[C@H]5CN6)n4)ncc3s2)c1` [Example 509]: the IC50 (on HPK1 (setting [4]); at HPK1 (setting [6]); in test [1] (setting [5])) was less than 100 nM throughout.
As to `CCN1C[C@@H]2C[C@H]1CN2c1nc(C)cc(Nc2cc3nc(-c4cncc(OCC5CC5)c4)sc3cn2)n1` [Example 422], the results for the IC50 (on HPK1 (setting [4]); in test [1] (setting [5])) were less than 100 nM and 100 to 1000 nM, respectively.
As for `CN(C)Cc1nc(Nc2cc3nc(-c4c(F)cccc4C(F)(F)F)sc3cn2)ccc1N1CCOCC1` [Example 15, 6-[(Dimethylamino)methyl]-N-{2-[2-fluoro-6-(trifluoromethyl)phenyl]-[1,3]thiazolo[5,4-c]pyridin-6-yl}-5-(morpholin-4-yl)pyridin-2-amine], the IC50 on HPK1 (setting [2]) is less than 100 nM; in test [1] (setting [3]), 100 to 1000 nM.
As to `c1cc(Nc2cc3nc(-c4ncco4)sc3cn2)nc(N2C[C@@H]3C[C@H]2CN3)n1` [Example 409], the IC50 was less than 100 nM at HPK1 (setting [4]), less than 100 nM at HPK1 (setting [6]) and 100 to 1000 nM in test [1] (setting [5]).
Consider `CN1C[C@@H]2C[C@H]1CN2c1nc(Nc2cc3nc(-c4cncc(C(C)(C)O)c4)sc3cn2)cc(C2CCOCC2)n1` [Example 438], for which the IC50 on HPK1 (setting [6]) was less than 100 nM; in test [1] (setting [5]), 100 to 1000 nM.
Regarding `Cc1cc(C(=O)N(C)C)cc(-c2nc3cc(Nc4cc(C)nc(N5C[C@@H]6C[C@H]5CN6CCO)n4)ncc3s2)c1` [Example 562], the IC50 (at HPK1 (setting [4]); in test [1] (setting [5])) was less than 100 nM in each case.
In the case of `Cc1cc(Nc2cc3nc(-c4cnn(CC5CC5)c4)sc3cn2)nc(N2C[C@@H]3C[C@H]2CN3CCO)n1` [Example 370], the IC50 (on HPK1 (setting [4]); in test [1] (setting [5])) was less than 100 nM each time.
As to `Cc1cccnc1-c1nc2cc(Nc3ccc(C4CCOCC4)c(CN4CCCC4)n3)ncc2s1` [Example 212, N-[2-(3-Methylpyridin-2-yl)-[1,3]thiazolo[5,4-c]pyridin-6-yl]-5-(oxan-4-yl)-6-[(pyrrolidin-1-yl)methyl]pyridin-2-amine], the IC50 (at HPK1 (setting [2]); in test [1] (setting [3])) was less than 100 nM each time.
As to `CCNC(C)c1nc(Nc2cc3nc(-c4c(F)cccc4F)sc3cn2)ccc1N1CCOCC1` (stereo not drawn) [Example 278, N-[2-(2,6-Difluorophenyl)-[1,3]thiazolo[5,4-c]pyridin-6-yl]-6-[1-(ethylamino)ethyl]-5-(morpholin-4-yl)pyridin-2-amine], the IC50 on HPK1 (setting [2]) was less than 100 nM; in test [1] (setting [3]), more than 5000 nM.
`Cc1cc(-c2nc3cc(Nc4cc(C)nc(N5C[C@@H]6C[C@H]5CN6CCO)n4)ncc3s2)cc(N2CCCC2=O)c1` [Example 345]: the IC50 (at HPK1 (setting [4]); in test [1] (setting [5])) was less than 100 nM throughout.
For `c1cnn(-c2nc3cc(Nc4ccc(C5CCOCC5)c(CN5CCCC5)n4)ncc3s2)c1` [Example 210, 5-(Oxan-4-yl)-N-[2-(1H-pyrazol-1-yl)-[1,3]thiazolo[5,4-c]pyridin-6-yl]-6-[(pyrrolidin-1-yl)methyl]pyridin-2-amine], the IC50 at HPK1 (setting [2]) is less than 100 nM; in test [1] (setting [3]), 100 to 1000 nM.
On to `Cc1cc(Nc2cc3nc(-c4cncc(C(F)F)c4)sc3cn2)nc(N2C[C@@H]3C[C@H]2CN3C)n1` [Example 384], for which the IC50 on HPK1 (setting [4]) is less than 100 nM; in test [1] (setting [5]), 100 to 1000 nM.
For `Cc1cccnc1-c1nc2cc(Nc3ccc(N4CCC(F)(F)C4)c(CN4CCCC4)n3)ncc2s1` [Example 9, 5-(3,3-Difluoropyrrolidin-1-yl)-N-[2-(3-methylpyridin-2-yl)-[1,3]thiazolo[5,4-c]pyridin-6-yl]-6-[(pyrrolidin-1-yl)methyl]pyridin-2-amine], the IC50 is less than 100 nM at HPK1 (setting [2]) and 100 to 1000 nM in test [1] (setting [3]).
For `Cc1cc(Nc2cc3nc(-c4ncc(C)o4)sc3cn2)nc(N2C[C@@H]3C[C@H]2CN3C)n1` [Example 373], the IC50 was less than 100 nM at HPK1 (setting [4]) and 100 to 1000 nM in test [1] (setting [5]).
`Cn1ccnc1-c1nc2cc(Nc3ccc(C4CCOCC4)c(CN4CCCC4)n3)ncc2s1` [Example 217, N-[2-(1-Methyl-1H-imidazol-2-yl)-[1,3]thiazolo[5,4-c]pyridin-6-yl]-5-(oxan-4-yl)-6-[(pyrrolidin-1-yl)methyl]pyridin-2-amine]: the IC50 (on HPK1 (setting [2]); in test [1] (setting [3])) was less than 100 nM each time.
Regarding `Cc1cc(Nc2cc3nc(-c4cnn(CC5CC5)c4)sc3cn2)nc(N2C[C@@H]3C[C@H]2CN3CCO)c1` [Example 348], the IC50 (at HPK1 (setting [4]); in test [1] (setting [5])) was less than 100 nM each time.
Regarding `Cc1cccnc1-c1nc2cc(Nc3cc(C(C)C)nc(N4C[C@@H]5C[C@H]4CN5)n3)ncc2s1` [Example 435], the IC50 on HPK1 (setting [4]) is less than 100 nM; in test [1] (setting [5]) it was 100 to 1000 nM.
The corresponding values for `Cc1cc(Nc2cc3nc(-c4cccc(C(=O)N(C)C)c4)sc3cn2)nc(N2C[C@@H]3C[C@H]2CN3Cc2cnn(C)c2)n1` [Example 494] are less than 100 nM and 100 to 1000 nM.
As to `CN1C[C@@H]2C[C@H]1CN2c1nccc(Nc2cc3nc(-c4cccc(S(=O)(=O)N(C)C)c4)sc3cn2)n1` [Example 415], the values for the IC50 (at HPK1 (setting [6]); in test [1] (setting [5])) were less than 100 nM and 100 to 1000 nM, respectively.
Turning to `Cc1cc(Nc2cc3nc(-c4cnn(CC5CC5)c4)sc3cn2)nc(N2C[C@@H]3C[C@H]2CN3CC(C)(C)O)n1` [Example 503], the IC50 on HPK1 (setting [4]) is less than 100 nM; in test [1] (setting [5]), 100 to 1000 nM.
With `c1cncc(-c2nc3cc(Nc4ccc([C@@H]5CCOC5)c(CN5CCCC5)n4)ncc3s2)c1` (single isomer, unassigned) [Example 261, 5-[(3R or 3S)—Oxolan-3-yl]-N-[2-(pyridin-3-yl)-[1,3]thiazolo[5,4-c]pyridin-6-yl]-6-[(pyrrolidin-1-yl)methyl]pyridin-2-amine], the IC50 on HPK1 (setting [2]) was less than 100 nM; in test [1] (setting [3]), 100 to 1000 nM.
For `CCN1C[C@@H]2C[C@H]1CN2c1nc(C)cc(Nc2cc3nc(-c4cnn(Cc5ccccc5)c4)sc3cn2)n1` [Example 336], the values for the IC50 (on HPK1 (setting [4]); in test [1] (setting [5])) were less than 100 nM and 100 to 1000 nM, respectively.
Turning to `Cc1cccnc1-c1nc2cc(Nc3cccc(N4C[C@@H]5C[C@H]4CN5C)n3)ncc2s1` [Example 90, 6-[(1S,4S)-5-Methyl-2,5-diazabicyclo[2.2.1]heptan-2-yl]-N-[2-(3-methylpyridin-2-yl)-[1,3]thiazolo[5,4-c]pyridin-6-yl]pyridin-2-amine], the IC50 on HPK1 (setting [2]) was less than 100 nM; in test [1] (setting [3]) it was 100 to 1000 nM.
For the compound `CN1C[C@@H]2C[C@H]1CN2c1cncc(Nc2cc3nc(-c4cccc(NS(C)(=O)=O)c4)sc3cn2)n1` [Example 285, N-{3-[6-({6-[(1S,4S)-5-methyl-2,5-diazabicyclo[2.2.1]heptan-2-yl]pyrazin-2-yl}amino)-[1,3]thiazolo[5,4-c]pyridin-2-yl]phenyl}methanesulfonamide], the IC50 was less than 100 nM at HPK1 (setting [2]); less than 100 nM on HPK1 (5 nM HPK1, 200 μM ATP, read-out: Biochemical Potency (high ATP)); 100 to 1000 nM in test [1] (setting [3]).
For `Cc1cc(-c2nc3cc(Nc4ccc(C)c(O[C@H]5CCNC5)n4)ncc3s2)ccn1` [Example 172, 5-Methyl-N-[2-(2-methylpyridin-4-yl)-[1,3]thiazolo[5,4-c]pyridin-6-yl]-6-[(3S)-pyrrolidin-3-yloxy]pyridin-2-amine], the IC50 (at HPK1 (setting [2]); in test [1] (setting [3])) was less than 100 nM each time.
